Values joined by “and” are separate entries in the source; they are usually repeats but may differ in a detail not shown here. Equal values may be shown once. Read-outs that look alike come from different tables or passages of the source.
Legend:
[1] = biological target: PRDM9 (Homo sapiens, UniProt Q9NQV7); assay: DSF thermal stabilisation, PRDM selectivity and titration; assay type: binding
Method: DSF measurements were performed as previously described[21] using a Light Cycler 480 II instrument from Roche Applied Science. […] Sypro Orange was purchased from Invitrogen as a 5000 × stock solution (concentration not specified by vendor) and was diluted 1:1000 to yield a 5 × working concentration. The temperature scan curves were fitted to a Boltzmann sigmoid function, and the Tm values were obtained from the midpoint of the transition.
Target sequence in this assay (Q9NQV7 whole entry): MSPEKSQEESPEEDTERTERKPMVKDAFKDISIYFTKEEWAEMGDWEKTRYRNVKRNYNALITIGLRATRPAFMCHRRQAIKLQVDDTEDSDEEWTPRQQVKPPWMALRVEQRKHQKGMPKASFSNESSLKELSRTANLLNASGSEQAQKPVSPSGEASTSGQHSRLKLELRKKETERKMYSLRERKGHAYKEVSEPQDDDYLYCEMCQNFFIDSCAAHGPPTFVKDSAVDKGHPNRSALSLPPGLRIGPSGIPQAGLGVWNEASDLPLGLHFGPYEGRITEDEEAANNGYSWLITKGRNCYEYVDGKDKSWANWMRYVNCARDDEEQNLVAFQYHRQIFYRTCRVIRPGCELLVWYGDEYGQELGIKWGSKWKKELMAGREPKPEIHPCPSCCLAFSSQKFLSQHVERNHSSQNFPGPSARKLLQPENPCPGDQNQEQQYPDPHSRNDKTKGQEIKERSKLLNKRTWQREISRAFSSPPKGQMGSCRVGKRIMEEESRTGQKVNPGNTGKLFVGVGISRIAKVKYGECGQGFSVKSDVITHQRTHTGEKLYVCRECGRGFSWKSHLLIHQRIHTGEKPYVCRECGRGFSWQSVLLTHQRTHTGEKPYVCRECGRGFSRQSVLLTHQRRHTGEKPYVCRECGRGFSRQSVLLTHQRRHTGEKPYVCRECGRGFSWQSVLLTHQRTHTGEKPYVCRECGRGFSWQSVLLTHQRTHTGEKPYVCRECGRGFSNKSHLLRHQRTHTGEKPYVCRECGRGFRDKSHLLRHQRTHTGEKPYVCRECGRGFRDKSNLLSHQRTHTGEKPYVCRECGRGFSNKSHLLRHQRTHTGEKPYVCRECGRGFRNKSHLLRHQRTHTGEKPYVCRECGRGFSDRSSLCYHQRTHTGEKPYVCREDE

[2] = biological target: T1, PRDM9 (Homo sapiens, UniProt Q9NQV7); assay: MOA determination: IC50 at varying SAM or peptide concentrations (SPA); assay type: biochemical
T1 construct: PRDM9 (amino acids: 195–415)
T1 sequence (Q9NQV7 195-415): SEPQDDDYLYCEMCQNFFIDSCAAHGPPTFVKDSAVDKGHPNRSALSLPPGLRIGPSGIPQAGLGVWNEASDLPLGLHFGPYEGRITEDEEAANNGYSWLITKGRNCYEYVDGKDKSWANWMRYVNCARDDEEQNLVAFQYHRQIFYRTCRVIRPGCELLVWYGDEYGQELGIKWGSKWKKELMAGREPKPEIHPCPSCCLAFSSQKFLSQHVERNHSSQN
Text: Reactions (in quadruplicates) were initiated by adding SAM and followed by measuring the methyltransferase activity using SPA assay. The determined IC50 values were fitted against the corresponding substrate concentrations. An increase in IC50 values when concentration of peptide was increased indicated a peptide-competitive pattern of inhibition.

[3] = biological target: T2, Opiate µ receptor (Homo sapiens, UniProt P35372); assay: Eurofins Panlabs panel, radioligand binding; conditions: at 10 µM
T2 construct: Eurofins Panlabs Discovery Services, Taiwan

[4] = biological target: T3, Adrenergic α2B (Homo sapiens, UniProt P18089); assay: Eurofins Panlabs panel, radioligand binding; conditions: at 10 µM
T3 construct: NIMH Psychoactive Drug Screening Program, University of North Carolina at Chapel Hill

[5] = MRK-740 62.5 uM, in the absence of SAM
[6] = MRK-740 62.5 uM, in the presence of 2 mM of SAM
[7] = MRK-740 125 uM, in the absence of SAM
[8] = MRK-740 125 uM, in the presence of 2 mM of SAM
[9] = MRK-740 250 uM, in the absence of SAM
[10] = MRK-740 250 uM, in the presence of 2 mM of SAM
[11] = MRK-740 500 uM, in the absence of SAM
[12] = MRK-740 500 uM, in the presence of 2 mM of SAM

T3 sequence (P18089 whole entry): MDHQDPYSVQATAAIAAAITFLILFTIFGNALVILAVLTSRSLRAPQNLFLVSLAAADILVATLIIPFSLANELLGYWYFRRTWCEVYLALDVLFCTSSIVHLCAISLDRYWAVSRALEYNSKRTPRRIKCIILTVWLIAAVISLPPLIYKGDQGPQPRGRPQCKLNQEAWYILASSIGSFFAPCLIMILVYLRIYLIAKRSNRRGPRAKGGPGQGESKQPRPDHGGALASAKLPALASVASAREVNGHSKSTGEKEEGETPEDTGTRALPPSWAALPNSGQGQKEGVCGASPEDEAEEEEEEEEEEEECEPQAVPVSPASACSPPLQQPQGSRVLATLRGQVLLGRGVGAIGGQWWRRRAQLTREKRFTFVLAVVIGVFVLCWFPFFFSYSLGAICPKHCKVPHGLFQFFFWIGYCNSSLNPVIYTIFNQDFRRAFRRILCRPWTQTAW
T2 sequence (P35372 whole entry): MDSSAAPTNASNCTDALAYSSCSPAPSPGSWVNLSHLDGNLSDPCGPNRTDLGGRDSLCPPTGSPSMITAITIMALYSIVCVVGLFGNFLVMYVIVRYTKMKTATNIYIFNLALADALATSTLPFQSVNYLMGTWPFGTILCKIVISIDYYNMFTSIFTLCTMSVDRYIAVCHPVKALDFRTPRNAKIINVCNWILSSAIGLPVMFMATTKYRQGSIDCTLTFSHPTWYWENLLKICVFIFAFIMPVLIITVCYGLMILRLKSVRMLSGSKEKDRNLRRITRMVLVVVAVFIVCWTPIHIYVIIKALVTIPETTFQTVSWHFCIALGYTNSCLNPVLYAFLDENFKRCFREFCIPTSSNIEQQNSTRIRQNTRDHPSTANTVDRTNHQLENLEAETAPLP

Structure (SMILES): COc1cc(OC)cc(-c2noc(N3CCN(C)C4(CCN(c5ccnc(C)c5)CC4)C3)n2)c1 [MRK-740]
- ∆Tm, Average (n=3) [1, 5]: 0.1127 ⁰C
- ∆Tm, replicates [1, 5]: 0.2122 ⁰C and -0.02556 ⁰C and 0.1514 ⁰C
- ∆Tm, Average (n=3) [1, 6]: 3.593 ⁰C
- ∆Tm, replicates [1, 6]: 3.459 ⁰C and 3.608 ⁰C and 3.713 ⁰C
- ∆Tm, Average (n=3) [1, 7]: 0.3345 ⁰C
- ∆Tm, replicates [1, 7]: 0.254 ⁰C and 0.2924 ⁰C and 0.4572 ⁰C
- ∆Tm, Average (n=3) [1, 8]: 4.481 ⁰C
- ∆Tm, replicates [1, 8]: 4.418 ⁰C and 4.4008 ⁰C and 4.624 ⁰C
- ∆Tm, Average (n=3) [1, 9]: 0.7417 ⁰C
- ∆Tm, replicates [1, 9]: 0.7489 ⁰C and 0.7435 ⁰C and 0.7328 ⁰C
- ∆Tm, Average (n=3) [1, 10]: 5.104 ⁰C
- ∆Tm, replicates [1, 10]: 5.051 ⁰C and 5.067 ⁰C and 5.196 ⁰C
- ∆Tm, Average (n=3) [1, 11]: 1.354 ⁰C
- ∆Tm, replicates [1, 11]: 1.288 ⁰C and 1.351 ⁰C and 1.422 ⁰C
- ∆Tm, Average (n=3) [1, 12]: 5.9348 ⁰C
- ∆Tm, replicates [1, 12]: 5.8495 ⁰C and 5.999 ⁰C and 5.956 ⁰C
- Pattern of PRDM9 inhibition with respect to SAM ([2]; 20 µM peptide, SAM 22 to 350 µM): uncompetitive pattern
- Ki ([2]; 20 µM peptide, varying SAM, read-out: Ki, estimated from asymptote of Fig 2d): ~160 nM
- Pattern of PRDM9 inhibition with respect to peptide (H3 1–25) substrate ([2]; 350 µM SAM, peptide 1.25 to 20 µM): competitive pattern of PRDM9 inhibition
- Ki ([2]; 350 µM SAM, varying H3 1–25 peptide, read-out: Ki, calculated from Y intercept of Fig. 2e): 65 ± 6 nM
- IC50 ([2]; [H3 1-25]/Km 1.25, Figure 2e, average of replicates, read-out: Average IC50): 0.0749 µM
- IC50 ([2]; [H3 1-25]/Km 1.25, Figure 2e, read-out: IC50 (µM), replicates): 0.0747 µM and 0.0785 µM and 0.0703 µM and 0.0762 µM
- IC50 ([2]; [H3 1-25]/Km 2.5, Figure 2e, average of replicates, read-out: Average IC50): 0.0926 µM
- IC50 ([2]; [H3 1-25]/Km 2.5, Figure 2e, read-out: IC50 (µM), replicates): 0.0843 µM and 0.0895 µM and 0.0878 µM and 0.109 µM
- IC50 ([2]; [H3 1-25]/Km 5, Figure 2e, average of replicates, read-out: Average IC50): 0.125 µM
- IC50 ([2]; [H3 1-25]/Km 5, Figure 2e, read-out: IC50 (µM), replicates): 0.129 µM and 0.102 µM and 0.118 µM and 0.151 µM
- IC50 ([2]; [H3 1-25]/Km 10, Figure 2e, average of replicates, read-out: Average IC50): 0.169 µM
- IC50 ([2]; [H3 1-25]/Km 10, Figure 2e, read-out: IC50 (µM), replicates): 0.138 µM and 0.151 µM and 0.173 µM and 0.215 µM
- IC50 ([2]; [H3 1-25]/Km 20, Figure 2e, average of replicates, read-out: Average IC50): 0.254 µM
- IC50 ([2]; [H3 1-25]/Km 20, Figure 2e, read-out: IC50 (µM), replicates): 0.228 µM and 0.278 µM and 0.257 µM
- IC50 ([2]; [SAM]/Km 0.18, Figure 2d, average of replicates, read-out: Average IC50): 0.893 µM
- IC50 ([2]; [SAM]/Km 0.18, Figure 2d, read-out: IC50 (µM), replicates): 0.838 µM and 0.633 µM and 1.03 µM and 1.07 µM
- IC50 ([2]; [SAM]/Km 0.36, Figure 2d, average of replicates, read-out: Average IC50): 0.704 µM
- IC50 ([2]; [SAM]/Km 0.36, Figure 2d, read-out: IC50 (µM), replicates): 0.519 µM and 0.651 µM and 0.615 µM and 1.03 µM
- IC50 ([2]; [SAM]/Km 0.73, Figure 2d, average of replicates, read-out: Average IC50): 0.374 µM
- IC50 ([2]; [SAM]/Km 0.73, Figure 2d, read-out: IC50 (µM), replicates): 0.349 µM and 0.395 µM and 0.369 µM and 0.382 µM
- IC50 ([2]; [SAM]/Km 1.46, Figure 2d, average of replicates, read-out: Average IC50): 0.275 µM
- IC50 ([2]; [SAM]/Km 1.46, Figure 2d, read-out: IC50 (µM), replicates): 0.27 µM and 0.288 µM and 0.249 µM and 0.292 µM
- IC50 ([2]; [SAM]/Km 2.92, Figure 2d, average of replicates, read-out: Average IC50): 0.21 µM
- IC50 ([2]; [SAM]/Km 2.92, Figure 2d, read-out: IC50 (µM), replicates): 0.18 µM and 0.228 µM and 0.197 µM and 0.236 µM
- Effect of SAH on PRDM9 inhibition by MRK-740, compared with SAM ([2]; increasing SAH in parallel to SAM): did not have the same effect
- Binding [3]: > 50%
- Binding [4]: > 50%

From article PMC6917776, “Discovery of a chemical probe for PRDM9” (Nature Communications, 2019)
